How the values were obtained:
[1] = system: Kuramochi cells labeled with mApple-H2B; assay: IncuCyte Cell Proliferation Assay; type: cell-based; conditions: 72 h
Summary of the method: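 GI50 came from dose-response fits of cell-count fold change between 0 and 72 h, normalized to DMSO controls. Counts were fluorescent nuclei from live-cell images over a 10-point, ½ log series starting at 20 μM.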

Kuramochi cells = assay: BrdU Cell Proliferation Assay; type: cell-based; conditions: read-out: BrdU - KURAMOCHI.1: IC50
Summary of the method: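 Signal is 450 nm absorbance from a peroxidase anti-BrdU ELISA after a 1-hour BrdU label, background-subtracted and normalized to DMSO-treated wells. Kuramochi cells (2,000 per well) had been exposed to compound for 4 days. Dosing used a 10-point dose response in 3-fold steps.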

SMILES	IC50 [1]	IC50 (Kuramochi cells)
CNC(=O)[C@@H](NC(=O)[C@@H]1CN(C(=O)c2cnn(Cc3ccccc3)c2)CC12CN(C(=O)[C@H]1CC1(C)C)C2)[C@@H](C)OCC(C)(C)C [I-130A]	5 to 20 µM	5 to 10 µM
CNC(=O)C(NC(=O)[C@@H]1CN(C(=O)c2cncs2)CC12CN(C(=O)[C@H]1CC1(C)C)C2)c1cccc(N2CCOCC2)n1 (some centres unmarked) [I-422]	> 20 µM	> 10 µM
C[C@@H](OCC1CCC(F)(F)CC1)[C@H](NC(=O)[C@@H]1CN(C(=O)c2cnn(Cc3ccc(F)cc3)c2)CC12CN(C(=O)[C@H]1CC1(C)C)C2)C(N)=O [I-203]	0.5 to 5 µM	0.5 to 5 µM
C[C@@H](OCc1ccccc1)[C@H](NC(=O)[C@@H]1CN(C(=O)c2cnn(Cc3ccccc3)c2)CC12CN(C(=O)[C@H]1CC1(C)C)C2)C(N)=O [I-176A]	> 20 µM	> 10 µM
CNC(=O)[C@@H](NC(=O)[C@@H]1CN(C(=O)c2cnn(Cc3ccccc3)c2)CC12CN(C(=O)[C@H]1CC1(C)C)C2)[C@@H](C)N(C)CC1CCCCC1 [I-266]	> 20 µM	> 10 µM
CC1(C)C[C@@H]1C(=O)N1CC2(CN(C(=O)c3cnn(Cc4ccccc4)c3)C[C@H]2C(=O)NCc2ccc(O)nn2)C1 [I-400]	> 20 µM	> 10 µM
CNC(=O)[C@@H](NC(=O)[C@@H]1CN(C(=O)Cc2cnn(Cc3ccccc3)c2)CC12CN(C(=O)[C@H]1CC1(C)C)C2)[C@@H](C)OCc1ccccc1 [I-373]	> 20 µM	> 10 µM
CC(O[C@H](C)[C@H](NC(=O)[C@@H]1CN(C(=O)c2cncs2)CC12CN(C(=O)[C@H]1CC1(C)C)C2)C(=O)N1CCCCC1)C1CCCCC1 (stereo partly drawn) [I-284, (8S)—N-((2S,3R)-3-(1-cyclohexylethoxy)-1-oxo-1-(piperidin-1-yl)butan-2-yl)-2-((S)-2,2-dimethylcyclopropane-1-carbonyl)-6-(thiazole-5-carbonyl)-2,6-diazaspiro[3.4]octane-8-carboxamide]	0.5 to 5 µM	0.5 to 5 µM
Cc1ccc(CNC(=O)[C@H]2CN(C(=O)c3cnn(Cc4ccccc4)c3)CC23CN(C(=O)[C@H]2CC2(C)C)C3)nn1 [I-381]	> 20 µM	> 10 µM
C[C@@H](OCC1CCCCC1)[C@H](NC(=O)C1CN(C(=O)c2cnn(Cc3ccccc3)c2)CC12CN(C(=O)[C@H]1CC1(C)C)C2)C(=O)N1CC(C)(C)C1 (some centres unmarked) [I-153 mixture]	≤ 0.5 µM	≤ 0.5 µM
CNC(=O)[C@@H](NC(=O)[C@@H]1CN(C(=O)c2scnc2Cl)CC12CN(C(=O)[C@H]1CC1(C)C)C2)[C@@H](C)OCC1CCCCC1 [I-157A]	0.5 to 5 µM	0.5 to 5 µM
CNC(=O)[C@@H](NC(=O)[C@@H]1CN(C(=O)c2cncs2)CC12CN(C(=O)[C@H]1CC1(C)C)C2)[C@@H](C)OC1CCCCC1 [I-290]	5 to 20 µM	> 10 µM
CNC(=O)[C@@H](NC(=O)[C@@H]1CN(C(=O)Cc2cn[nH]c2)CC12CN(C(=O)[C@H]1CC1(C)C)C2)[C@@H](C)OCc1ccccc1 [I-358]	> 20 µM	> 10 µM
CO[C@H]1COCC[C@H]1NC(=O)[C@@H]1CN(C(=O)c2cnn(Cc3ccccc3)c2)CC12CN(C(=O)[C@H]1CC1(C)C)C2 [I-134A]	> 20 µM	> 10 µM
CC1(C)C[C@@H]1C(=O)N1CC2(CN(C(=O)c3cnn(Cc4ccccc4)c3)C[C@H]2C(=O)N[C@H]2C[C@@H]2c2cccc(Cl)c2)C1 [I-140A]	5 to 20 µM	> 10 µM
COC[C@H]1CCCN(C(=O)[C@@H](NC(=O)C2CN(C(=O)c3cncs3)CC23CN(C(=O)[C@H]2CC2(C)C)C3)[C@@H](C)OCC2CCCCC2)C1 (some centres unmarked) [I-196 mixture]	0.5 to 5 µM	≤ 0.5 µM

SMILES	IC50 [1]	IC50 (Kuramochi cells)
CNC(=O)[C@@H](NC(=O)[C@H]1CN(C(=O)c2cnn(Cc3ccccc3)c2)CC12CN(C(=O)[C@H]1CC1(C)C)C2)[C@@H](C)OCC1CCC(C(F)(F)F)CC1 (some centres unmarked) [I-141B]	5 to 20 µM	0.5 to 5 µM
CNC(=O)[C@@H](NC(=O)[C@@H]1CN(C(=O)c2cnc(CC3CC3)s2)CC12CN(C(=O)[C@H]1CC1(C)C)C2)[C@@H](C)OCC1CCCCC1 [I-177A]	5 to 20 µM	0.5 to 5 µM
CNC(=O)[C@@H](NC(=O)[C@@H]1CN(C(=O)Cc2cnn(C)c2)CC12CN(C(=O)[C@H]1CC1(C)C)C2)[C@@H](C)OCc1ccccc1 [I-384]	> 20 µM	> 10 µM
COC[C@H]1CCCN(C(=O)[C@@H](NC(=O)[C@@H]2CN(C(=O)c3cncs3)CC23CN(C(=O)[C@H]2CC2(C)C)C3)[C@@H](C)OCc2ccccc2F)C1 [I-321]	0.5 to 5 µM	0.5 to 5 µM
CNC(=O)[C@@H](NC(=O)[C@H]1CN(C(=O)c2cnn(Cc3ccccc3)c2)CC12CN(C(=O)[C@H]1CC1(C)C)C2)[C@@H](C)OCC(C)C [I-137B]	> 20 µM	> 10 µM
CNC(=O)[C@@H](NC(=O)[C@@H]1CN(C(=O)c2cnn(Cc3ccccc3)c2)CC12CN(C(=O)C(C)(C)C1CC1)C2)[C@@H](C)OCc1ccccc1 [I-276]	> 20 µM	> 10 µM
CC1(C)C[C@@H]1C(=O)N1CC2(CN(C(=O)c3cnn(Cc4ccccc4)c3)C[C@H]2C(=O)N[C@@H]2CCN(C3CC3)C2=O)C1 [I-259]	> 20 µM	> 10 µM
CC1(C)C[C@@H]1C(=O)N1CC2(CN(C(=O)c3cnn(Cc4ccccc4)c3)C[C@H]2C(=O)N2CCN(CC3CCCCC3)C(=O)C2)C1 [I-253]	5 to 20 µM	5 to 10 µM
Cc1ccc(CNC(=O)[C@@H]2CN(C(=O)c3cnn(Cc4ccccc4)c3)CC23CN(C(=O)[C@H]2CC2(C)C)C3)cn1 [I-364]	5 to 20 µM	> 10 µM
C[C@@H](OCC1CCCCC1)[C@H](NC(=O)[C@@H]1CN(C(=O)c2cnn(Cc3ccccc3)c2)CC12CN(C(=O)[C@H]1CC1(C)C)C2)C(=O)N1CCCCC1 [I-194A, (S)-6-(1-benzyl-1H-pyrazole-4-carbonyl)-N-((2S,3R)-3-(cyclohexylmethoxy)-1-oxo-1-(piperidin-1-yl)butan-2-yl)-2-((S)-2,2-dimethylcyclopropane-1-carbonyl)-2,6-diazaspiro[3.4]octane-8-carboxamide]	≤ 0.5 µM	≤ 0.5 µM
C[C@@H](OCC1CCCCC1)[C@H](NC(=O)C1CN(C(=O)c2cncs2)CC12CN(C(=O)[C@H]1CC1(C)C)C2)C(=O)N1CCC[C@H](CO)C1 (some centres unmarked) [I-193]	≤ 0.5 µM	≤ 0.5 µM
CNC(=O)[C@@H](NC(=O)[C@@H]1CN(C(=O)c2cnn(Cc3ccccc3)c2)CC12CN(C(=O)NC(C)C)C2)[C@@H](C)OCC1CCCCC1 [I-267]	> 20 µM	> 10 µM
CNC(=O)[C@@H](NC(=O)[C@@H]1CN(C(=O)c2cnn(Cc3ccccc3)c2)CC12CN(C(=O)[C@H]1CC1(C)C)C2)[C@@H](C)OCC1C[C@@H](C)C[C@@H](C)C1 (some centres unmarked) [I-249]	0.5 to 5 µM	0.5 to 5 µM
C[C@H](OC1CCN(C(=O)[C@@H]2CN(C(=O)c3cnn(Cc4ccccc4)c3)CC23CN(C(=O)[C@H]2CC2(C)C)C3)CC1)c1ccccc1 [I-275]	> 20 µM	> 10 µM
CNC(=O)[C@@H](NC(=O)[C@@H]1CN(C(=O)c2cnn(Cc3ccccc3)c2)CC12CN(C(=O)[C@H]1CC1(C)C)C2)[C@@H](C)OC[C@H]1CC[C@@H](O)CC1 [I-424]	> 20 µM	> 10 µM

Reference: patent US12065445B2, “CDK2 inhibitors and methods of using the same” (Cedilla Therapeutics, Inc., priority 2021, dated 2024)
